Experiment [1] has as its system LM2 and MDA-MB-231 breast cancer cell lines. The experiment in a line: PAICS 2D cell proliferation assay. The experiment is classed as cell-based. The settings on record: Homo sapiens; 72 hours incubation; cell line (LM2 or MDA-MB-231) not given. On the procedure:
Frozen cryovial stocks of LM2 and MDA-MB-231 breast cancer cell lines were thawed and cultured in 4.5 g/L glucose DMEM (31966-047, Invitrogen) supplemented with 10% Fetal Bovine Serum (10500-064, Invitrogen) until confluent in a T175 flask. Cells were incubated at 37° C. with 5% CO2 in a humidified incubator.
Cells were collected from T175 flasks by washing with PBS (10010-056, Invitrogen) and dissociated using Accutase (A6964, Sigma Aldrich). This was followed by centrifuging (1200 rpm, 5 min) and resuspending the cells in 10 ml of media containing 1% penicillin/streptomycin (15140-122, Invitrogen). Cells were counted by trypan blue exclusion method using an automated cell counter (Cellometer) and diluted to a concentration of 40,000/ml. 1000 cells were then seeded into 384-well white-walled plates (Corning, 3707) in a volume of 25 μl. Plates were incubated overnight at 37° C. with 5% CO2.
After 24 hours, PAICS compounds were added onto the assay plates using an HP D300 Digital Dispenser (Hewlett Packard). 10 mM stocks were used and dispensed as a 10 point concentration response curve (CRC) ½ log dilution series with a final top concentration of 100 μM. Controls were added onto each plate: positive controls included Staurosporine CRC (100 μM stock dispensed as a 10 point CRC ½ log dilution series with a final top concentration of 1 μM) and PAICS compound MRT00211919 (10 mM stock dispensed as a 10 point CRC ½ log dilution series with a final top concentration of 100 μM); a high control of Staurosporine (0.1 μM (LM2), 0.316 μM (MDA-MB-231) FAC) and a low control of media containing 1% DMSO. A final concentration of 1% DMSO was then added across the plates for normalisation. Following compound addition, assay plates were incubated for 72 hours at 37° C. with 5% CO2.
After 72 h incubation, dead and viable cells were measured in each assay plate. Cytotoxicity was assessed through fluorescent DNA staining using the CellTox™ Green Cytotoxicity Assay kit (G8743, Promega) following the manufacturer's multiplexing protocol. Impaired cell membrane integrity results in the access of dye to stain DNA allowing quantification of dead cells. Cell viability was determined following ATP quantification using the CellTiter-Glo® Luminescent Cell Viability Assay kit (G7572, Promega) following the manufacturer's protocol. ATP released from lysed cells allowed for the generation of a signal proportional to the number of cells present in the well. All endpoint reads were performed using the PheraSTAR Plus (BMG Labtech). Data is expressed as % viable cells and % dead cells against controls (mean±SEM of duplicate curves).

The next experiment has as its target T1, WT full length PAICS (Homo sapiens, UniProt P22234).
T1 construct: 5 μl WT full length PAICS (final assay concentration, fac, 2.5 nM) in basic buffer
T1 sequence (P22234 1-425): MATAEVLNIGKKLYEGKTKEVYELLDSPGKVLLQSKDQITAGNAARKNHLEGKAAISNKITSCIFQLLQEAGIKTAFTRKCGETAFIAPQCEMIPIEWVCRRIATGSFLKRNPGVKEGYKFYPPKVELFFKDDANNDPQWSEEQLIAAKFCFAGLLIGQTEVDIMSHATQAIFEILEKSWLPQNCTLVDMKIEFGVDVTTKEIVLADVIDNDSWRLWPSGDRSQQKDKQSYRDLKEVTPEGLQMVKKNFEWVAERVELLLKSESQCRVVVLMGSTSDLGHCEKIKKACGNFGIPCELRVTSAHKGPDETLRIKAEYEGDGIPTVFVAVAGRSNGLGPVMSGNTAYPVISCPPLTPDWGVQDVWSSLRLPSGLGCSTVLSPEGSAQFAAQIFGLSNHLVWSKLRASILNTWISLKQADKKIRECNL
The experiment in a line: Biochemical assay to measure PAICS activity (Transcreener ADP2 FI, SAICAR synthetase reaction). The settings on record: PAICS 2.5 nM, 30 mins pre-incubation, ADP detection by fluorescence intensity. An excerpt:
The biochemical assay was used to measure PAICS SAICAR synthetase-mediated conversion of CAIR, aspartic acid and ATP to SAICAR, ADP and inorganic phosphate (PI), post-AIR/CAIR equilibration (see FIG. 3). This was achieved by detecting the ADP generated during the reaction, using Bellbrook Lab's Transcreener ADP^2 FI assay. An increase in the fluorescence intensity is directly proportional to the amount of PAICS activity.
The Transcreener ADP^2 FI assay is a homogeneous competitive displacement fluorescence intensity assay which uses direct immunodetection of ADP. Displacement of the tracer by ADP causes an increase in the fluorescence at excitation 590 nm and emission 617 nm (FIG. 3).
5 μl WT full length PAICS (final assay concentration, fac, 2.5 nM) in basic buffer, added to black, non-binding, 384-well plates (Corning #3575), columns 1 to 22.5 μl basic buffer was added to columns 23+24 (negative control). PAICS stock at 31.9 μM from the PI's lab (Steve Firestine). Basic buffer contained 50 mM Tris-HCl pH8 and 0.5 mM EDTA, fac.
1 μl compound in 100% DMSO added per well, or 1 μl 100% DMSO to positive controls (columns 1+2) and negative controls (columns 23+24). Final assay top concentration of compound either 1 mM or 30 μM, serially diluted with half-log dilutions across the plate in duplicate (one 10-point concentration response curve across wells 3 to 12, another across 13 to 22). Compounds pre-incubated with PAICS enzyme for 30 mins at RT.
2 μl CAIR added (fac 10 μM) in basic buffer plus 25 mM MgCl2 and 50 mM KHCO3 fac to all wells. CAIR stock 50 mM from Steve Firestine's lab. 1 hr RT incubation for AIR-CAIR equilibration. NB: ˜50% CAIR is decarboxylated during equilibration therefore 5 μM remains for the synthetase reaction.
2 μl ATP/aspartic acid added (fac 30 μM/180 μM) in reaction buffer to all wells. 30 mins RT incubation for appropriate level of ATP turnover. Reaction buffer contained basic buffer plus 10 mM DTT, 0.01% BSA and 0.01% Brij 35, fac.
10 μl ADP detection reagent added to all wells (as per instructions, Transcreener ADP^2 FI kit, BellBrook Labs #3013-10K). Incubation for 1 h at RT to allow antibody equilibration. Fluorescence intensity determined using a Tecan Safire2 (excitation at 590 nm, emission at 617 nm).

Where only a bound is given, the exact number is not on record here.

Experimental findings from patent publication US10961234B2, “Oxazole derivatives for use in the treatment of cancer” (LIFEARC, priority 2016, dated 2021) are described below.

The term EC50 denotes the concentration giving half of the maximal effect. What is called IC50 is the concentration that gives 50% inhibition. The low end stands for greater potency in that assay, the high end for weaker potency in that assay. `Nc1nc(C(=O)Nc2cc(-c3cnn(CCCN4CCNCC4)c3)ccc2Cl)co1` [Example 51, 2-Amino-N-(2-chloro-5-(1-(3-(piperazin-1-yl)propyl)-1H-pyrazol-4-yl)phenyl)oxazole-4-carboxamide] came in with an EC50 in experiment [1] of 100 to 250 nM. Also, at WT full length PAICS, the IC50 is under 10 nM.

`CN1CCN(CCCn2cc(-c3ccc(Cl)c(NC(=O)c4coc(N)n4)c3)cn2)CC1` [Example 52, 2-Amino-N-(2-chloro-5-(1-(3-(4-methylpiperazin-1-yl)propyl)-1H-pyrazol-4-yl)phenyl)oxazole-4-carboxamide]: the EC50 in experiment [1] is 100 to 250 nM. In addition, at WT full length PAICS, the IC50 fell in the range of 10 to 25 nM.

In experiment [1], `N#Cc1nn(C2CCNCC2)cc1-c1ccc(Cl)c(NC(=O)c2coc(N)n2)c1` [Example 53, 2-Amino-N-(2-chloro-5-(3-cyano-1-(piperidin-4-yl)-1H-pyrazol-4-yl)phenyl)oxazole-4-carboxamide] came in with an EC50 of 100 to 250 nM. On WT full length PAICS, this molecule returned a half-maximal inhibitory concentration (IC50) of 10 to 25 nM.

The molecule `Nc1nc(C(=O)Nc2cc(-c3ccn(C4CCNCC4)n3)ccc2Cl)co1` [Example 54, 2-amino-N-{2-chloro-5-[1-(piperidin-4-yl)-1H-pyrazol-3-yl]phenyl}-1,3-oxazole-4-carboxamide] showed an EC50 in experiment [1] of 250 to 500 nM. Moreover, the IC50 on WT full length PAICS was 10 to 25 nM.

`Cc1nn(C2CCNCC2)cc1-c1ccc(Cl)c(NC(=O)c2coc(N)n2)c1` [Example 55, 2-Amino-N-(2-chloro-5-(3-methyl-1-(piperidin-4-yl)-1H-pyrazol-4-yl)phenyl)oxazole-4-carboxamide] showed an EC50 in experiment [1] of 100 to 250 nM. The same molecule returned an IC50 against WT full length PAICS of 10 to 25 nM.

In the case of `CCNCCn1cc(-c2ccc(Cl)c(NC(=O)c3coc(N)n3)c2)cn1` [Example 56, 2-Amino-N-(2-chloro-5-(1-(2-(ethylamino)ethyl)-1H-pyrazol-4-yl)phenyl)oxazole-4-carboxamide], the EC50 in experiment [1] is 100 to 250 nM. In addition, at WT full length PAICS, the concentration for half-maximal inhibition (IC50) lay within 10 to 25 nM.

`CN1CCN(CCn2cc(-c3ccc(Cl)c(NC(=O)c4coc(N)n4)c3)cn2)CC1` [Example 57, 2-Amino-N-(2-chloro-5-(1-(2-(4-methylpiperazin-1-yl)ethyl)-1H-pyrazol-4-yl)phenyl)oxazole-4-carboxamide] had an EC50 in experiment [1] of 250 to 500 nM. On WT full length PAICS, this molecule yielded an IC50 of 25 to 100 nM.

In experiment [1], `CN(C)CCNC(=O)Cn1cc(-c2ccc(Cl)c(NC(=O)c3coc(N)n3)c2)cn1` [Example 58, 2-Amino-N-{2-chloro-5-[1-(2-{[2-(dimethylamino)ethyl]amino}-2-oxoethyl)-1H-pyrazol-4-yl]phenyl}-1,3-oxazole-4-carboxamide] came in with an EC50 of 250 to 500 nM. For the same molecule, the IC50 against WT full length PAICS fell in the range of 25 to 100 nM.

As for `CN(C)C1CCN(C(=O)Cn2cc(-c3ccc(Cl)c(NC(=O)c4coc(N)n4)c3)cn2)CC1` [Example 59, 2-Amino-N-[2-chloro-5-(1-{2-[4-(dimethylamino)piperidin-1-yl]-2-oxoethyl}-1H-pyrazol-4-yl)phenyl]-1,3-oxazole-4-carboxamide], in experiment [1], the EC50 lay within 250 to 500 nM. On WT full length PAICS, the IC50 lay in the range of 25 to 100 nM.

In experiment [1], `CC1CN(C(=O)Cn2cc(-c3ccc(Cl)c(NC(=O)c4coc(N)n4)c3)cn2)CCN1` (stereo not shown) [Example 60, 2-Amino-N-(2-chloro-5-{1-[2-(3-methylpiperazin-1-yl)-2-oxoethyl]-1H-pyrazol-4-yl}phenyl)-1,3-oxazole-4-carboxamide] showed an EC50 of 250 to 500 nM. On WT full length PAICS, this molecule gave an IC50 of over 100 nM.

In turn, `CN1CCC(NC(=O)Cn2cc(-c3ccc(Cl)c(NC(=O)c4coc(N)n4)c3)cn2)CC1` [Example 61, 2-Amino-N-[2-chloro-5-(1-{2-[(1-methylpiperidin-4-yl)amino]-2-oxoethyl}-1H-pyrazol-4-yl)phenyl]-1,3-oxazole-4-carboxamide] gave an EC50 in experiment [1] of 250 to 500 nM. On WT full length PAICS, this molecule came in with an IC50 of 25 to 100 nM.

Molecule `CN(C)CC(=O)N1CCC(n2cc(-c3ccc(Cl)c(NC(=O)c4coc(N)n4)c3)cn2)CC1` [Example 62, 2-Amino-N-(2-chloro-5-{1-[1-(N,N-dimethylglycyl)piperidin-4-yl]-1H-pyrazol-4-yl}phenyl)-1,3-oxazole-4-carboxamide] returned an EC50 in experiment [1] of 100 to 250 nM. Further, the IC50 at WT full length PAICS was over 100 nM.

With `CN(C)CCC(=O)N1CCC(n2cc(-c3ccc(Cl)c(NC(=O)c4coc(N)n4)c3)cn2)CC1` [Example 63, 2-Amino-N-(2-chloro-5-{1-[1-(N,N-dimethyl-beta-alanyl)piperidin-4-yl]-1H-pyrazol-4-yl}phenyl)-1,3-oxazole-4-carboxamide], in experiment [1], the EC50 was in the range of 250 to 500 nM. Besides, the IC50 against WT full length PAICS was over 100 nM.

In experiment [1], `CN(C)CCCC(=O)N1CCC(n2cc(-c3ccc(Cl)c(NC(=O)c4coc(N)n4)c3)cn2)CC1` [Example 64, 2-Amino-N-[2-chloro-5-(1-{1-[4-(dimethylamino)butanoyl]piperidin-4-yl}-1H-pyrazol-4-yl)phenyl]-1,3-oxazole-4-carboxamide] gave an EC50 of 250 to 500 nM. The IC50 against WT full length PAICS was over 100 nM.

`CN(C)CCC(=O)N1CC(Cn2cc(-c3ccc(Cl)c(NC(=O)c4coc(N)n4)c3)cn2)C1` [Example 65, 2-Amino-N-[2-chloro-5-{1-([1-(N,N-dimethyl-beta-alanyl)azetidin-3-yl]methyl}-1H-pyrazol-4-yl)phenyl]-1,3-oxazole-4-carboxamide] showed an EC50 in experiment [1] of 250 to 500 nM. The same molecule gave an IC50 against WT full length PAICS of 25 to 100 nM.

`Nc1nc(C(=O)Nc2cc(-c3cnn(C4CCN(CCO)CC4)c3)ccc2Cl)co1` [Example 66, 2-Amino-N-(2-chloro-5-{1-[1-(2-hydroxyethyl)piperidin-4-yl]-1H-pyrazol-4-yl}phenyl)-1,3-oxazole-4-carboxamide] had an EC50 in experiment [1] of 100 to 250 nM. For the same molecule, the IC50 against WT full length PAICS was over 100 nM.

`Nc1nc(C(=O)Nc2cc(-c3ccc(OC4CCNC4)nc3)ccc2Cl)co1` (stereo not shown) [Example 68, 2-Amino-N-(2-chloro-5-(6-(pyrrolidin-3-yloxy)pyridin-3-yl)phenyl)oxazole-4-carboxamide]: the EC50 in experiment [1] was in the range of 250 to 500 nM. The same molecule displayed an IC50 against WT full length PAICS of 10 to 25 nM.
